Data as given in PMC10470909, “cis-Decalin-containing tetramic acids as inhibitors of insect steroidogenic glutathione S-transferase Noppera-bo” (PLOS ONE, 2023).
Entries after “also recorded” stand apart in the source; their conditions may differ. Where two headings read alike, the source gives them in different places.

Tests used:
Candida albicans JCM1542 = assay: Antimicrobial assay, C. albicans; assay type: cell-based
HIV-1 integrase = test system: HIV-1 integrase; parameters: method as in earlier work; details: cited from earlier work
[1] = test system: Pyricularia oryzae kita-1; assay: microbe, parasite or virus in culture; assay type: cell-based; details: for IC50: Pyricularia oryzae, KITA1, read-out: Antimicrobial activity (IC50, μM) Po
[2] = In vitro cytotoxicity, src^ts-NRK; assay type: cell-based, rat; details: rat; src^ts-NRK cells
Protocol: (§1) In vitro cytotoxicity and antimicrobial assays were conducted as previously reported.

[3] = test system: Plasmodium falciparum 3D7; assay: Antimalarial assay, P. falciparum; assay type: cell-based
[4] = test system: Aspergillus fumigatus Af293; assay: Antimicrobial assay, A. fumigatus; assay type: cell-based
[5] = test system: Staphylococcus aureus 209; assay: Antimicrobial assay, S. aureus; assay type: cell-based
[6] = In vitro cytotoxicity, HeLa; assay type: cell-based, human; details: human, HeLa cells (human cervical epidermoid carcinoma cell line)
Protocol: as §1

Escherichia coli HO141 = assay: Antimicrobial assay, E. coli; assay type: cell-based
[7] = test system: mitochondrial respiration in HeLa cells; assay: Measurement of mitochondrial respiration (OCR/ECAR, Seahorse XFe96 extracellular flux analyzer); details: 6 min after sample treatment
Protocol: Changes in oxygen consumption rate (OCR) and extracellular acidification rate (ECAR) were measured using a Seahorse XFe96 analyzer (Agilent, CA, USA).
To confirm this, the effect of 1 on energy metabolism was evaluated using an extracellular flux analyzer, which can simultaneously measure two metabolic properties: oxygen consumption rate (OCR) for an indicative of OXPHOS and extracellular acidification rate (ECAR) for that of glycolysis [20].
Percentage changes in OCR and ECAR (relative to their respective baseline values) induced by test compounds were calculated from S14 Fig. Each data point represents the mean ± standard deviation value at 6 min after sample treatment (n = 3). Note that decreasing OCR and increasing ECAR is a typical phenotype characteristic to mitochondrial respiration inhibitors [20].
Real-time measurements of the OCR and ECAR in HeLa cells were performed after treating the cells with different concentrations of the test samples. To perform the Seahorse XF Cell Mito Stress Test, the cells were treated with oligomycin A (OMA, 1 μM), FCCP (0.125 μM), and rotenone/antimycin A (R/A, 1 μM each) at the indicated times. Data are mean ± s.d. (n = 3 technical replicates) from one representative experiment out of three independent experiments.

[8] = In vitro cytotoxicity, HL-60; assay type: cell-based; details: human, HL-60 cells (human promyelocytic leukemia cell line)
Protocol: as §1

[9] = test system: src^ts-NRK, normal rat kidney cells infected with ts25; assay: In vitro cytotoxicity, src^ts-NRK; assay type: cell-based
Protocol: as §1

[10] = test system: HeLa, human cervical epidermoid carcinoma cell line; assay: In vitro cytotoxicity, HeLa; assay type: cell-based; details: HeLa cells
Protocol: as §1

Solubility in solvents = assay type: physicochemical; details: hexane, CHCl3, EtOAc, acetone, MeOH, MeCN, DMSO, or H2O
Protocol: Its molecular formula was determined as C24H31NO6 using HRESITOFMS.

[11] = Candida albicans JCM1542, read-out: Antimicrobial activity (IC50, μM) Ca
[12] = Plasmodium falciparum 3D7, read-out: Antimicrobial activity (IC50, μM) Pf
[13] = Aspergillus fumigatus Af293, read-out: Antimicrobial activity (IC50, μM) Af
[14] = Staphylococcus aureus 209, read-out: Antimicrobial activity (IC50, μM) Sa
[15] = Escherichia coli HO141, read-out: Antimicrobial activity (IC50, μM) Ec
[16] = Candida albicans, JCM1542, read-out: Antimicrobial activity (IC50, μM) Ca
[17] = Plasmodium falciparum, 3D7, read-out: Antimicrobial activity (IC50, μM) Pf
[18] = Aspergillus fumigatus, AF293, read-out: Antimicrobial activity (IC50, μM) Af
[19] = Staphylococcus aureus, 209, read-out: Antimicrobial activity (IC50, μM) Sa
[20] = Escherichia coli, HO141, read-out: Antimicrobial activity (IC50, μM) Ec

SMILES | IC50 [1] [µM] | IC50 [2] [µM] | IC50 [6] [µM] | IC50 [8] [µM] | IC50 (Candida albicans JCM1542; [16]) [µM] | IC50 [3, 17] [µM] | IC50 [4, 18] [µM] | IC50 [5, 19] [µM] | IC50 (Escherichia coli HO141; [20]) [µM] | also measured
C/C=C/[C@@H]1C=C[C@@H]2C[C@H](C)CC[C@H]2[C@]1(C)C(=O)C1=C(O)[C@H](CO)N(C)C1=O [Compound 1, equisetin] | 0.15 | 20 | 35 | 12 | – | – | – | – | – | IC50 (Candida albicans JCM1542; [11]): 29 µM; HIV-1 integrase inhibitory activity (in words) (HIV-1 integrase): inhibit HIV-1 integrase activity approximately equally; IC50 [3, 12]: 12 µM; IC50 [4, 13]: 29 µM; IC50 [5, 14]: 1.4 µM; IC50 (Escherichia coli HO141; [15]): 13 µM; change in extracellular acidification rate (ECAR) [7]: increase in ECAR; change in oxygen consumption rate (OCR) [7]: decrease in OCR
C/C=C/C=C/[C@H]1C(C)=C[C@H]2C[C@@H](C)CC[C@@H]2[C@@]1(C)C(=O)C1=C(O)[C@@H](CO)N(C)C1=O [Compound 2, phomasetin] | 0.044 | 11 | 6.1 | 3.4 | 21 | 1.8 | 21 | 0.14 | 1.3 | HIV-1 integrase inhibitory activity (in words) (HIV-1 integrase): inhibit HIV-1 integrase activity approximately equally
C/C=C/[C@H]1C=C[C@H]2C[C@H](C)CC[C@H]2[C@]1(C)C(=O)C1=C(O)[C@H](CO)N(C)C1=O [Compound 3, cis-equisetin] | 0.46 | 35 | 46 | 14 | – | – | – | – | – | IC50 (Candida albicans JCM1542; [11]): 40 µM; fold lower activity compared with that of 1, P. oryzae ([1]; growth inhibitory activity against P. oryzae, relative to 1): 3 fold; IC50 [3, 12]: 13 µM; IC50 [4, 13]: 40 µM; IC50 [5, 14]: 5.6 µM; fold lower activity compared with that of 1, S. aureus ([5]; growth inhibitory activity against S. aureus, relative to 1): 4 fold; IC50 (Escherichia coli HO141; [15]): 20 µM
C/C=C/C=C/[C@@H]1C(C)=C[C@@H]2C[C@@H](C)CC[C@@H]2[C@@]1(C)C(=O)C1=C(O)[C@@H](CO)NC1=O [Compound 4, N-demethyl-cis-phomasetin] | 2 | > 75 | > 75 | 22 | 9 | 13 | 58 | 6 | 1.5 | cytotoxicity against src^ts-NRK (in words) [9]: no cytotoxicity; cytotoxicity against HeLa (in words) [10]: no cytotoxicity
C/C=C/C=C/[C@H]1C(C)=C[C@H]2C[C@@H](C)CC[C@@H]2[C@@]1(C)C(=O)C1=C(O)[C@@H](CO)NC1=O [Compound 5, N-demethylphomasetin] | 1.3 | 63 | 40 | 11 | 3.8 | 4.8 | 9.8 | 0.2 | 2.5 | –
C/C=C/C=C/[C@@H]1C(C)=C[C@@H]2C[C@@H](C)CC[C@H]2[C@]1(C)C(=O)C1=C(O)C(CO)NC1=O (some centres unmarked) [Compound 6] | 5.5 | > 70 | > 70 | 12 | 65 | 23 | > 70 | 3.8 | > 70 | –
CC1=C[C@H]2C[C@@H](C)CC[C@@H]2[C@@](C)(C(=O)C2=C(O)[C@@H](CO)N(C)C2=O)[C@H]1/C=C/C=C/CO [Compound 7] | 12 | – | 28 | 22 | > 70 | 4.7 | > 70 | 1.4 | 21 | –
CC1=C[C@@H]2C[C@@H](C)CC[C@@H]2[C@@](C)(C(=O)C2=C(O)[C@@H](CO)NC2=O)[C@@H]1/C=C/C=C/C(=O)O [Compound 8] | > 70 | > 70 | > 70 | > 70 | > 70 | 26 | > 70 | 63 | 28 | solubility (in words) (Solubility in solvents): not soluble in any solvent; also recorded: too low
